Measured values as given in patent US10112899B2 (ViiV HEALTHCARE UK LIMITED, priority 2014, dated 2018).
pIC50: −log10 of the molar value.

Test system: HIV in the HTLV-1 transformed cell line MT-4
Assay: organism not typed
Format: cell-based
Conditions: MT-4 cells, luciferase/cell titer glo readout after 96 hours, 10 point dose response

SMILES	pIC50 (MT4, 96 h)	pIC50
Cc1ccc(-c2c(C)c3c(c(C)c2[C@H](OC(C)(C)C)C(=O)O)CN(C(=O)OCC(C)(C)C)C3)cc1 [Example 287, (S)-2-(tert-butoxy)-2-(4,7-dimethyl-2-((neopentyloxy)carbonyl)-6-(p-tolyl)isoindolin-5-yl)acetic acid]	8.30	–
Cc1ccc(CN2Cc3c(C)c(-c4ccc(C)cc4)c([C@H](OC(C)(C)C)C(=O)O)c(C)c3C2)cc1 [Example 20, (S)-2-(tert-butoxy)-2-(4,7-dimethyl-2-(4-methylbenzyl)-6-(p-tolyl)isoindolin-5-yl)acetic acid]	6.94	–
Cc1c(-c2c(C)c3c(c(C)c2[C@H](OC(C)(C)C)C(=O)O)CN(C(=O)N2CCC(F)(F)C2)C3)cc(F)c2c1CCCO2 (atropisomer, axis not shown; (M)) [Example 100, (2S)-2-(tert-Butoxy)-2-(2-(3,3-difluoropyrrolidine-1-carbonyl)-6-(M)-(8-fluoro-5-methylchroman-6-yl)-4,7-dimethylisoindolin-5-yl)acetic acid]	8.30	–
Cc1ccc(-c2c(C)c3c(c(C)c2[C@H](OC(C)(C)C)C(=O)O)CN(C(=O)[C@H]2CCOC2)C3)cc1 [Example 231, (S)-2-(tert-butoxy)-2-(4,7-dimethyl-2-((S)-tetrahydrofuran-3-carbonyl)-6-(p-tolyl)isoindolin-5-yl)acetic acid]	7.43	–
Cc1ccc(-c2c(C)c3c(c(C)c2[C@H](OC(C)(C)C)C(=O)O)CN(C(=O)c2cccc(C)c2)C3)cc1 [Example 225, (S)-2-(tert-butoxy)-2-(4,7-dimethyl-2-(3-methylbenzoyl)-6-(p-tolyl)isoindolin-5-yl)acetic acid]	8.30	–
Cc1c(-c2c(C)c3c(c(C)c2[C@H](OC(C)(C)C)C(=O)O)CN(C(=O)N2CCCCC2)C3)ccc2c1CCCO2 [Example 321, (2S)-2-(tert-butoxy)-2-(4,7-dimethyl-6-(5-methylchroman-6-yl)-2-(piperidine-1-carbonyl)isoindolin-5-yl)acetic acid]	8.70	–
Cc1c2c(c(C)c([C@H](OC(C)(C)C)C(=O)O)c1-c1ccc(Cl)cc1)CN(C(=O)c1cccc3c1OCO3)C2 [Example 308, (S)-2-(2-(benzo[d][1,3]dioxole-4-carbonyl)-6-(4-chlorophenyl)-4,7-dimethylisoindolin-5-yl)-2-(tert-butoxy)acetic acid]	8.40	–
Cc1ccc(-c2c(C)c3c(c(C)c2[C@H](OC(C)(C)C)C(=O)O)CN(C2CCC(C)(C)CC2)C3)cc1 [Example 14, (S)-2-(tert-Butoxy)-2-(2-(4,4-dimethylcyclohexyl)-4,7-dimethyl-6-(p-tolyl)isoindolin-5-yl)acetic acid]	6.93	–
Cc1ccc(-c2c(C)c3c(c(C)c2[C@H](OC(C)(C)C)C(=O)O)CN(C(=O)N2CCN(C)CC2)C3)cc1 [Example 71, (2S)-2-(tert-butoxy)-2-[4,7-dimethyl-6-(4-methylphenyl)-2-(4-methylpiperazine-1-carbonyl)-2,3-dihydro-1H-isoindol-5-yl]acetic acid]	6.56	–
Cc1ncccc1C(=O)N1Cc2c(C)c(-c3cc(F)c4c(c3C)CCCO4)c([C@H](OC(C)(C)C)C(=O)O)c(C)c2C1 (atropisomer, axis not shown; (M)) [Example 142, (S)-2-(tert-butoxy)-2-((M)-6-(8-fluoro-5-methylchroman-6-yl)-4,7-dimethyl-2-(2-methylnicotinoyl)isoindolin-5-yl)acetic acid]	7.51	–
Cc1c(-c2c(C)c3c(c(C)c2[C@H](OC(C)(C)C)C(=O)O)CN(C(=O)N2CCC(F)(F)C2)C3)ccc2c1NCCO2 (atropisomer, axis not shown; (M)) [Example 312, (S)-2-(tert-butoxy)-2-((M)-2-(3,3-difluoropyrrolidine-1-carbonyl)-4,7-dimethyl-6-(5-methyl-3,4-dihydro-2H-benzo[b][1,4]oxazin-6-yl)isoindolin-5-yl)acetic acid]	8.22	–
Cc1ccc(-c2c(C)c3c(c(C)c2[C@H](OC(C)(C)C)C(=O)O)CN(C(=O)N2CC4CCC(C2)O4)C3)cc1 [Example 75, (2S)-2-(tert-butoxy)-2-[4,7-dimethyl-6-(4-methylphenyl)-2-{8-oxa-3-azabicyclo[3.2.1]octane-3-carbonyl}-2,3-dihydro-1H-isoindol-5-yl]acetic acid]	7.47	–
Cc1c(-c2c(C)c3c(c(C)c2[C@H](OC(C)(C)C)C(=O)O)CN(C(=O)N2CCCC[C@H]2C)C3)cc(F)c2c1CCCO2 (atropisomer, axis not shown; (M)) [Example 205, (S)-2-(tert-butoxy)-2-((M)-6-(8-fluoro-5-methylchroman-6-yl)-4,7-dimethyl-2-((M)-2-methylpiperidine-1-carbonyl)isoindolin-5-yl)acetic acid]	8.40	–
Cc1ccc(-c2c(C)c3c(c(C)c2[C@H](OC(C)(C)C)C(=O)O)CN(C(=O)N2CCC(F)(F)C2)C3)cc1 [Example 68, (2S)-2-(tert-butoxy)-2-[2-(3,3-difluoropyrrolidine-1-carbonyl)-4,7-dimethyl-6-(4-methylphenyl)-2,3-dihydro-1H-isoindol-5-yl]acetic acid]	8.10	–
Cc1ccc(-c2c(C)c3c(c(C)c2[C@H](OC(C)(C)C)C(=O)O)CN(Cc2ccncc2)C3)cc1 [Example 11, (S)-2-(tert-butoxy)-2-(4,7-dimethyl-2-(pyridin-4-ylmethyl)-6-(p-tolyl)isoindolin-5-yl)acetic acid]	6.76	–
Cc1ccc(-c2c(C)c3c(c(C)c2[C@H](OC(C)(C)C)C(=O)O)CN(C(=O)Cc2cccc(F)c2)C3)cc1 [Example 233, (S)-2-(tert-butoxy)-2-(2-(2-(3-fluorophenyl)acetyl)-4,7-dimethyl-6-(p-tolyl)isoindolin-5-yl)acetic acid]	7.92	–
Cc1ccc(-c2c(C)c3c(c(C)c2[C@H](OC(C)(C)C)C(=O)O)CN(C(=O)c2cc(F)c(Cl)c(F)c2)C3)cc1 [Example 282, (S)-2-(tert-butoxy)-2-(2-(4-chloro-3,5-difluorobenzoyl)-4,7-dimethyl-6-(p-tolyl)isoindolin-5-yl)acetic acid]	8.15	–
Cc1ccc(-c2c(C)c3c(c(C)c2[C@H](OC(C)(C)C)C(=O)O)CN(C(=O)NC(C)(C)c2ccccc2)C3)cc1 [Example 97, (S)-2-(tert-butoxy)-2-(4,7-dimethyl-2-((2-phenylpropan-2-yl)carbamoyl)-6-(p-tolyl)isoindolin-5-yl)acetic acid]	6.84	–
COc1cc(C)ccc1C(=O)N1Cc2c(C)c(-c3cc(F)c4c(c3C)CCCO4)c([C@H](OC(C)(C)C)C(=O)O)c(C)c2C1 (atropisomer, axis not shown; (M)) [Example 200, (S)-2-(tert-butoxy)-2-((M)-6-(8-fluoro-5-methylchroman-6-yl)-2-(2-methoxy-4-methylbenzoyl)-4,7-dimethylisoindolin-5-yl)acetic acid]	7.96	–
Cc1ccc(-c2c(C)c3c(c(C)c2C(OC(C)(C)C)C(=O)O)CN(S(=O)(=O)c2cccc4ccccc24)C3)cc1 (stereo not shown) [Example 5, 2-(tert-Butoxy)-2-(4,7-dimethyl-2-(naphthalen-1-ylsulfonyl)-6-(p-tolyl)isoindolin-5-yl)acetic acid]	–	7.38
Cc1ccc(-c2c(C)c3c(c(C)c2[C@H](OC(C)(C)C)C(=O)O)CN(C(=O)N(C)C2CCCCC2)C3)cc1 [Example 67, (2S)-2-(tert-butoxy)-2-{2-[cyclohexyl(methyl)carbamoyl]-4,7-dimethyl-6-(4-methylphenyl)-2,3-dihydro-1H-isoindol-5-yl}acetic acid]	7.26	–
Cc1ccc(-c2c(C)c3c(c(C)c2[C@H](OC(C)(C)C)C(=O)O)CN(C(=O)c2cccc(Cl)c2)C3)cc1 [Example 220, (S)-2-(tert-butoxy)-2-(2-(3-chlorobenzoyl)-4,7-dimethyl-6-(p-tolyl)isoindolin-5-yl)acetic acid]	8.40	–
Cc1ccc(-c2c(C)c3c(c(C)c2[C@H](OC(C)(C)C)C(=O)O)CN(C(=O)N2CCN(C)C(=O)C2)C3)cc1 [Example 90, (S)-2-(tert-butoxy)-2-(4,7-dimethyl-2-(4-methyl-3-oxopiperazine-1-carbonyl)-6-(p-tolyl)isoindolin-5-yl)acetic acid]	6.57	–
Cc1c(-c2c(C)c3c(c(C)c2[C@H](OC(C)(C)C)C(=O)O)CN(C(=O)N2CCC(F)(F)CC2)C3)cc(F)c2c1CCCO2 (atropisomer, axis not shown; (M)) [Example 213, (S)-2-(tert-butoxy)-2-((M)-2-(4,4-difluoropiperidine-1-carbonyl)-6-(8-fluoro-5-methylchroman-6-yl)-4,7-dimethylisoindolin-5-yl)acetic acid]	8.52	–
Cc1ccc(C(=O)N2Cc3c(C)c(-c4cc(F)c5c(c4C)CCCO5)c([C@H](OC(C)(C)C)C(=O)O)c(C)c3C2)cc1 (atropisomer, axis not shown; (M)) [Example 190, (S)-2-(tert-butoxy)-2-((M)-6-(8-fluoro-5-methylchroman-6-yl)-4,7-dimethyl-2-(4-methylbenzoyl)isoindolin-5-yl)acetic acid]	8.30	–
Cc1c(-c2c(C)c3c(c(C)c2[C@H](OC(C)(C)C)C(=O)O)CN(C(=O)N2CCCC(C)(C)CC2)C3)cc(F)c2c1CCCO2 (atropisomer, axis not shown; (M)) [Example 206, (S)-2-(tert-butoxy)-2-((M)-2-(4,4-dimethylazepane-1-carbonyl)-6-(8-fluoro-5-methylchroman-6-yl)-4,7-dimethylisoindolin-5-yl)acetic acid]	8.30	–
Cc1c(-c2c(C)c3c(c(C)c2[C@H](OC(C)(C)C)C(=O)O)CN(C(=O)c2cccc(F)c2)C3)ccc2c1NCCO2 [Example 303, (2S)-2-(tert-butoxy)-2-(2-(3-fluorobenzoyl)-4,7-dimethyl-6-(5-methyl-3,4-dihydro-2H-benzo[b][1,4]oxazin-6-yl)isoindolin-5-yl)acetic acid]	–	8.30
Cc1c2c(c(C)c([C@H](OC(C)(C)C)C(=O)O)c1-c1ccc(Cl)cc1)CN(C(=O)N1CCCCC1)C2 [Example 132, (S)-2-(tert-butoxy)-2-(6-(4-chlorophenyl)-4,7-dimethyl-2-(piperidine-1-carbonyl)isoindolin-5-yl)acetic acid]	7.68	–
